Read-outs that look alike come from different tables or passages of the source.
What was measured:
[1] = tested on: lipid peroxidation in rat brain homogenate; test: Inhibition of lipid peroxidation (TBARS) in rat brain homogenate, FeSO4-induced; format: biochemical
Protocol: Adult male Wistar rats (200–250 g) were provided by the Instituto de Fisiología Celular, Universidad Nacional Autónoma de México (UNAM). The procedures and care of animals were conducted in conformity with the Mexican Official Norm for Animal Care and Handling NOM-062-ZOO-1999. They were maintained at 23 ± 2 °C on a 12/12 h light-dark cycle with ad libitum access to food and water.
Animal sacrifice was carried out avoiding unnecessary pain. The rats were sacrificed with CO2. The cerebral tissue (whole brain) was rapidly dissected and homogenized in phosphate-buffered saline (PBS) solution (0.2 g of KCl, 0.2 g of KH2PO4, 8 g of NaCl, and 2.16 g of NaHPO4.7H2O/L, pH adjusted to 7.4) as described elsewhere to produce a 1/10 (w/v) homogenate. The homogenate was centrifuged at 800 rcf (relative centrifugal field) for 10 min. The supernatant protein content was measured using Folin and Ciocalteu’s phenol reagent and adjusted with PBS at 2.666 mg of protein/mL.
As an index of lipid peroxidation, TBARS levels were measured using rat brain homogenates according to the method described by Ng and co-workers, with some modifications. A supernatant (375 µL) was added with 50 µL of 20 µM EDTA and 25 µL of each sample concentration dissolved in DMSO (25 µL of DMSO for the control group) and incubated at 37 °C for 30 min. The lipid peroxidation was started adding 50 µL of freshly prepared 100 µM FeSO4 solution (final concentration 10 µM) and incubated at 37 °C for 1h. The TBARS measurements were obtained as described by Ohkawa and co-workers, with some modifications. To each tube 500 µL of TBA reagent (0.5% 2-thiobarbituric acid in 0.05 N NaOH and 30% trichloroacetic acid, in 1:1 ratio) was added and the final suspension was cooled on ice for 10 min, centrifuged at 13,400 rcf for 5 min and heated at 80 °C in a water bath for 30 min. After cooling at room temperature, the absorbance of 200 µL of supernatant was measured at λ = 540 nm in a Microplate Reader Synergy/HT BIOTEK Instrument, Inc., Winooski, VT, USA. The concentration of TBARS was calculated by interpolation on a standard curve of tetra-methoxypropane (TMP) as a precursor of MDA [38]. Results are expressed as n moles of TBARS per mg of protein. The inhibition ratio (IR [%]) was calculated using the formula IR = (C − E) × 100/C, where C is the control absorbance and E is the sample absorbance. Butylated hydroxytoluene (BHT) and α tocopherol were used as positive standards. All data are presented as mean ± standard error (SEM). The data were analyzed by one-way analysis of variance (ANOVA) followed by Dunnett’s test for comparison against a control. Values of p ≤ 0.05 (*) and p ≤ 0.01 (**) were considered statistically significant.

[2] = tested on: healthy monkey kidney cell line (COS-7); test: Cytotoxicity towards healthy cell line; format: cell-based; settings: COS7
[3] = tested on: MCF-7 (human mammary adenocarcinoma); test: Cytotoxicity, sulforhodamine B (SRB) microculture assay; format: cell-based; settings: for inhibition at 25 µM: MCF7, 25 μM, read-out: % of Inhibition (cytotoxic screening)
Protocol: (§1) The cytotoxicity of all compounds was tested against six cancer cell lines: U251 (human glioblastoma cell line), PC-3 (human prostate adenocarcinoma), K562 (human chronic myelogenous leukemia), HCT-15 (human colon adenocarcinoma), MCF-7 (human mammary adenocarcinoma), and SKLU-1 (human lung adenocarcinoma). Cell lines were supplied by the U.S. National Cancer Institute (NCI). The cell lines were cultured in an RPMI-1640 medium supplemented with 10% fetal bovine serum, […] L-glutamine, 10,000 units/mL penicillin G sodium, 10,000 µg/mL streptomycin sulfate, 25 µg/mL amphotericin B (Invitrogen/Gibco™, Thermo Fisher Scientific, Waltham, MA, USA), and 1% non-essential amino acids (Gibco). They were maintained at 37 °C in a humidified atmosphere with 5% CO2. […] The human tumor cytotoxicity was determined using the protein-binding dye sulforhodamine B (SRB) in a microculture assay to measure cell growth, as described in the protocols established by the NCI [39, 40, 41].

[4] = tested on: K562 (human chronic myelogenous leukemia); test: as above; format: cell-based; settings: for inhibition at 25 µM: read-out: % of Inhibition (cytotoxic screening)
Protocol: as §1

[5] = tested on: PC-3 (human prostate adenocarcinoma); test: as above; format: cell-based; settings: for inhibition at 25 µM: Homo sapiens, read-out: % of Inhibition (cytotoxic screening)
Protocol: as §1

[6] = tested on: U251 (human glioblastoma cell line); test: as above; format: cell-based; settings: for inhibition at 25 µM: U-251, 25 μM, read-out: % of Inhibition (cytotoxic screening)
Protocol: as §1

[7] = tested on: SKLU-1 (human lung adenocarcinoma); test: as above; format: cell-based; settings: for inhibition at 25 µM: SK-LU-1, 25 μM, read-out: % of Inhibition (cytotoxic screening)
Protocol: as §1

[8] = Cytotoxicity towards healthy cell line; format: cell-based, monkey; settings: monkey, COS-7 kidney cells; COS7; 25 μM; read-out: % of Inhibition (cytotoxic screening)
[9] = tested on: HCT-15 (human colon adenocarcinoma); test: Cytotoxicity, sulforhodamine B (SRB) microculture assay; format: cell-based; settings: for inhibition at 25 µM: read-out: % of Inhibition (cytotoxic screening)
Protocol: as §1

[10] = concentration 1 (unit not given)
[11] = concentration 10 (unit not given)
[12] = concentration 100 (unit not given)

| Structure (SMILES) | % of Inhibition (lipoperoxidation screening) [1, 10] [%] | % of Inhibition (lipoperoxidation screening) [1, 11] [%] | % of Inhibition (lipoperoxidation screening) [1, 12] [%] | % of Inhibition (cytotoxic screening) ([2]; 25 μM) [%] | % of Inhibition (cytotoxic screening) ([3]; 25 μM) [%] | IC50 [4] [µM] | % of Inhibition (cytotoxic screening) ([4]; 25 μM) [%] | % of Inhibition (cytotoxic screening) ([5]; 25 μM) [%] | % of Inhibition (cytotoxic screening) ([6]; 25 μM) [%] | % of Inhibition (cytotoxic screening) ([7]; 25 μM) [%] | inhibition at 25 µM [8] [%] | inhibition at 25 µM ([3]; Homo sapiens) [%] | inhibition at 25 µM ([4]; Homo sapiens, 25 μM) [%] | inhibition at 25 µM ([5]; 25 μM) [%] | inhibition at 25 µM ([6]; Homo sapiens) [%] | inhibition at 25 µM ([9]; Homo sapiens, 25 μM) [%] | inhibition at 25 µM ([7]; Homo sapiens) [%] | IC50 [6] [µM] | % of Inhibition (cytotoxic screening) ([9]; 25 μM) [%] | IC50 [7] [µM] | other results |
| --- | --- | --- | --- | --- | --- | --- | --- | --- | --- | --- | --- | --- | --- | --- | --- | --- | --- | --- | --- | --- | --- |
| O=C(C=C([O-])/C=C/c1cccs1)/C=C/c1cccs1.O=C(C=C([O-])/C=C/c1cccs1)/C=C/c1cccs1.[Cu+2] [ThiopheneCurc-Cu] | 5.67 | 51.00 | 53.96 | 0 | 57.9 | 38.6 ± 8.1 | 84.4 | 63.6 | 58.2 | 91.0 |  |  |  |  |  |  |  |  |  |  | Inhibition (%) of lipid peroxidation ([1]; 3.16 μM, mean ± SEM, n = 3): 12.51 ± 3.57%; TBARS ([1]; 3.16 μM, mean ± SEM, n = 3): 4.665 ± 0.144 nmol/mg prot.; Inhibition (%) of lipid peroxidation ([1]; 5.62 μM, mean ± SEM, n = 3): 31.7 ± 2.33%; TBARS ([1]; 5.62 μM, mean ± SEM, n = 3): 3.651 ± 0.200 nmol/mg prot.; Inhibition (%) of lipid peroxidation ([1]; 10 μM, mean ± SEM, n = 3): 49.46 ± 1.96%; TBARS ([1]; 10 μM, mean ± SEM, n = 3): 2.693 ± 0.029 nmol/mg prot.; Inhibition (%) of lipid peroxidation ([1]; 17.78 μM, mean ± SEM, n = 3): 57.25 ± 1.19%; TBARS ([1]; 17.78 μM, mean ± SEM, n = 3): 2.280 ± 0.052 nmol/mg prot.; Inhibition (%) of lipid peroxidation ([1]; 31.62 μM, mean ± SEM, n = 3): 55.9 ± 1.51%; TBARS ([1]; 31.62 μM, mean ± SEM, n = 3): 2.351 ± 0.046 nmol/mg prot.; Inhibition (%) of lipid peroxidation ([1]; 56.23 μM, mean ± SEM, n = 3): 58.14 ± 2.66%; TBARS ([1]; 56.23 μM, mean ± SEM, n = 3): 2.225 ± 0.055 nmol/mg prot.; IC50 ([1]; rat brain homogenate, TBARS, mean ± SEM, n = 3): 10.3 ± 0.59 µM |
| Cn1cccc1/C=C/C(=O)/C=C(O)/C=C/c1cccn1C [N-methyl-pyrCurc, N-methylpyrrolcurcumin] | 13.71 | 17.41 | 84.75 |  |  |  |  |  |  |  | 100 | 99.9 | 65.8 | 60.4 | 52.8 | 18.1 | 100 |  |  |  | IC50 ([3]; Homo sapiens, MCF7): 27.3 ± 4.3 µM; IC50 ([4]; Homo sapiens): 12.9 ± 1 µM; IC50 ([6]; Homo sapiens, U-251): 25.8 ± 2.7 µM; IC50 ([9]; Homo sapiens): 22.4 ± 2.4 µM; IC50 ([7]; Homo sapiens, SK-LU-1): 13 ± 1.9 µM |
| COc1cc(/C=C/C(=O)CC(=O)/C=C/c2ccc(O)c(OC)c2)ccc1O [Curc, Curcumin] |  |  |  |  |  |  |  |  |  |  | 71.6 | 82.4 | 80.1 | 94.4 | 67.1 | 80 | 94.5 |  |  |  |  |
| Cn1cccc1/C=C/C(=O)C=C([O-])/C=C/c1cccn1C.Cn1cccc1/C=C/C(=O)C=C([O-])/C=C/c1cccn1C.[Mg+2] [N-methyl-pyrCurc-Mg] | −4.22 | 12.24 | 69.70 |  |  |  |  |  |  |  |  |  |  |  |  |  |  |  |  |  | % of Inhibition (cytotoxic screening) ([2]; 12.5 μM): 23.4%; % of Inhibition (cytotoxic screening) ([3]; 12.5 μM): 35.7%; % of Inhibition (cytotoxic screening) ([4]; 12.5 μM): 28.8%; % of Inhibition (cytotoxic screening) ([5]; 12.5 μM): 1.4%; % of Inhibition (cytotoxic screening) ([6]; 12.5 μM): 19.5%; % of Inhibition (cytotoxic screening) ([9]; 12.5 μM): 15.8%; % of Inhibition (cytotoxic screening) ([7]; 12.5 μM): 18.1% |
| O=C(C=C([O-])/C=C/c1ccco1)/C=C/c1ccco1.O=C(C=C([O-])/C=C/c1ccco1)/C=C/c1ccco1.[Cu+2] [FuranCurc-Cu] | 0.83 | 27.46 | 88.94 | 100 | 92.8 |  | 90.1 | 100 | 100 | 95.0 |  |  |  |  |  |  |  | 4 ± 0.3 | 72.4 | 6.5 ± 0.2 | IC50 [5]: 3 ± 0.1 µM |
| Cn1cccc1/C=C/C(=O)C=C([O-])/C=C/c1cccn1C.Cn1cccc1/C=C/C(=O)C=C([O-])/C=C/c1cccn1C.[Cu+2] [N-methyl-pyrCurc-Cu] | −7.20 | 38.48 | 71.20 | 100 | 100 | 5.9 ± 1.5 | 74.67 | 64.99 | 71.62 | 100 |  |  |  |  |  |  |  | 10.6 ± 1 | 100 | 10.3 ± 1 | IC50 [3]: 10.8 ± 1.7 µM; IC50 [9]: 12.9 ± 2.1 µM |

Reference: paper PMC9919861, “Homoleptic Complexes of Heterocyclic Curcuminoids with Mg(II) and Cu(II): First Conformationally Heteroleptic Case, Crystal Structures, and Biological Properties” (Molecules, 2023)
